{
  "source": "patent US20060069157A1",
  "about": "“Method of ameliorating or abrogating the effects of a neurodegenerative disorder, such as Huntington's disease, by sodium butyrate chemotherapy” (U.S. DEPARTMENT OF VETERANS AFFAIRS, priority 2004, published 2006)",
  "key": {"[1]": {"tested_on": "mRNA expression in R6/2 striatum and cortex", "assay": "Microarray gene expression analysis (U74Av2) of striatum and cortex", "assay_type": "in vivo, mouse", "parameters": "key to Array, NaBu Txd R6/2 vs R6/2: I = increased; D = decreased; NC = no change", "experimental": "Microarray Gene Expression Analysis: Beginning at six weeks of age, four mice were treated for 2 weeks with daily intraperitoneal injections (1.2 g/kg) of sodium butyrate. Mice were euthanized within 60 minutes of the last injection and cortical and striatal brain tissues were dissected separately and snap frozen on dry ice. In parallel, samples from four untreated R6/2 and four wild-type mice were collected in the same manner. One microarray sample was prepared from 10 Êg of total RNA from each tissue and hybridized to one U74Av2 array (Affymetrix). Four independent pair-wise comparisons were performed using MAS 5.0 software (Affymetrix) to evaluate gene expression changes between sodium butyrate-treated R6/2 and untreated R6/2 animals and between untreated R6/2 and untreated wild-type animals. Difference calls were scored, and only mRNAs that received difference calls in the same direction (increased or decreased) in at least 3 of the 4 pair-wise comparisons were included for presentation in the present study."}, "[2]": {"tested_on": "MKP-1, α-globin, β-globin, preproenkephalin mRNA", "assay": "Northern blotting of brain mRNAs", "assay_type": "in vivo, mouse", "details": "percentage of untreated R6/2, normalized to β-actin", "experimental": "Northern Blotting: Two micrograms of total RNA from brain samples of sodium butyrate-treated and untreated R6/2 and wild type mice (n=4 each) were separated on a 1.2% agarose 3% formaldehyde gel in 1× MOPS buffer, electrophoretically transferred to a nylon membrane (Genescreen Ill.) in 1× TAE, and dried in a standard utility oven at 65 βC. cDNA probes were prepared from IMAGE clones (Research Genetics, _-globin 555069, _-globin 318205, MKP-1 4235972), or cDNAs described in previous studies (enkephalin and _-actin probe sequences) (Luthi-Carter et al., 2002). Hybridizations and washes were conducted as previously described (Luthi-Carter et al. 2002). Blots were quantitated using a Molecular Dynamics Phosphorimager and its accompanying ImageQuant software. Signals for target mRNAs were expressed as ratios to _-actin signals (on the same blot), and the data was analyzed by unpaired two-tailed Student's t-test."}, "[3]": {"tested_on": "R6/2 transgenic mouse model of HD", "assay": "Survival of R6/2 mice, intraperitoneal dose response", "assay_type": "in vivo", "from_the_text": "Animals: The Bedford VA Medical Center laboratories have maintained a stable colony of R6/2 HD mice for over 6 years, with founders originating from Jackson Laboratories (Bar Harbor, Me., USA). Male transgenic HD mice of the R6/2 strain were bred with females from their background strain (B6CBAFI/J). Offspring were genotyped using a PCR assay on tail DNA. We have standardized criteria to ensure homogeneity of the cohorts within the testing groups (Dedeoglu et al., 2002). Mice were randomized from 28 litters all within 3 days from the same ‘f’ generation. Body weights were taken at 20 days and mice were equally distributed according to weight within each cohort. Mice under 7 g at 20 days were excluded from the experiments. The animals were housed 5/cage under standard conditions with free access to water and food. The mice were handled under the same conditions by one investigator. Since we have not observed gender differences in survival in the R6/2 transgenic HD mouse model (Ferrante et al., 2000), female mice were used in the experimental paradigms. These experiments were carried out in accordance with the NIH Guide for the Care and Use of Laboratory Animals, and were approved by both the Veterans Administration and Boston University Animal Care Committees.\nIntraperitoneal Dosing: Based upon previous studies (Egorin et al., 1999), a dose response study was performed, treating groups of wild type mice (n=10) and littermate R6/2 mice (n=20) with 100, 200, 400, 600, 1,200, 5,000, and 10,000 mg/kg daily intraperitoneal injection (100 Êl) of sodium butyrate (Acros Organics/Fisher Scientific) dissolved in PBS and made fresh daily. […]\nSurvival: R6/2 mice were assessed for morbidity and mortality twice daily, mid morning and late afternoon. Motor performance and ability to feed were closely monitored and used as the basis for determining when to euthanize the mice. […] In addition, deaths occurred overnight and were recorded the following morning. […]\nStatistics: The data are expressed as the mean+standard error of the mean. […] Survival data was analyzed by the Kaplan-Meier survival curves."}, "[4]": {"details": "Angiomotin like 2 mRNA, AI854404, 160131_at, Cortex, treated vs untreated R6/2"}, "[5]": {"details": "Arginine vasopressin mRNA, M88354, 93381_at, Cortex, treated vs untreated R6/2"}, "[6]": {"details": "DNAJ/Heat shock protein 40 mRNA, AB028272, 96254_at, Striatum, treated vs untreated R6/2"}, "[7]": {"details": "Dynamin mRNA, L31397, 103031_g_at, Cortex, treated vs untreated R6/2"}, "[8]": {"details": "Erythroid differentiation regulator mRNA, AJ007909, 98525_f_at, Striatum, treated vs untreated R6/2"}, "[9]": {"details": "Hemoglobin, alpha adult chain 1 mRNA, V00714, 94781_at, Striatum + Cortex, treated vs untreated R6/2"}, "[10]": {"details": "Hemoglobin, beta 1 mRNA, V00722, 103534_at, Cortex, treated vs untreated R6/2"}, "[11]": {"details": "Hemoglobin, beta adult major chain mRNA, J00413, 101869_s_at, Striatum + Cortex, treated vs untreated R6/2"}, "[12]": {"details": "Heterogeneous nuclear ribonucleoprotein A1 mRNA, AI183202, 92724_at, Striatum, treated vs untreated R6/2"}, "[13]": {"details": "MAP kinase phosphatase-1 (MKP-1) mRNA, X61940, 104598_at, Striatum + Cortex, 1.2 g/kg i.p. 2 weeks vs untreated R6/2"}, "[14]": {"details": "MAP kinase phosphatase-3 (MKP-3) mRNA, AI845584, 93285_at, Cortex, treated vs untreated R6/2"}, "[15]": {"details": "Microtubule-associated protein tau mRNA, M18775, 102431_at, Cortex, treated vs untreated R6/2"}, "[16]": {"details": "Preproenkephalin mRNA, Striatum"}, "[17]": {"details": "Protein phosphatase 1B, beta isoform mRNA, D45859, 101836_at, Striatum, treated vs untreated R6/2"}, "[18]": {"details": "Transthyretin mRNA, D00073, 95350_at, Striatum, treated vs untreated R6/2"}, "[19]": {"details": "Unknown mRNA, AA711516, 96302_at, Striatum, treated vs untreated R6/2"}, "[20]": {"details": "Unknown mRNA, AI153421, 96215_f_at, Striatum, treated vs untreated R6/2"}, "[21]": {"details": "Unknown mRNA, AI451558, 97161_at, Striatum, treated vs untreated R6/2"}, "[22]": {"details": "Unknown mRNA, AV330064, 161114_i_at, Cortex, treated vs untreated R6/2"}, "[23]": {"details": "Unknown mRNA, C79248, 94689_at, Striatum + Cortex, treated vs untreated R6/2"}, "[24]": {"details": "c-fos oncogene mRNA, V00727, 160901_at, Cortex, treated vs untreated R6/2"}},
  "note": "Marks after values point to notes of the source that are not given here.",
  "data": [
    {"compound": "CCCC(=O)[O-].[Na+]", "note": "[sodium butyrate]", "values": [
      {"measurement": "% Change calls", "setting": "[1]; [4]", "value": 100, "unit": "%"},
      {"measurement": "Direction of change", "setting": "[1]; [4]", "value": "Increase"},
      {"measurement": "% Change calls", "setting": "[1]; [5]", "value": 75, "unit": "%"},
      {"measurement": "Direction of change", "setting": "[1]; [5]", "value": "Increase"},
      {"measurement": "% Change calls", "setting": "[1]; [6]", "value": 75, "unit": "%"},
      {"measurement": "Direction of change", "setting": "[1]; [6]", "value": "Increase"},
      {"measurement": "% Change calls", "setting": "[1]; [7]", "value": 75, "unit": "%"},
      {"measurement": "Direction of change", "setting": "[1]; [7]", "value": "Decrease"},
      {"measurement": "% Change calls", "setting": "[1]; [8]", "value": 100, "unit": "%"},
      {"measurement": "Direction of change", "setting": "[1]; [8]", "value": "Decrease"},
      {"measurement": "% Change calls", "setting": "[1]; [9]", "value": 100, "unit": "%"},
      {"measurement": "Direction of change", "setting": "[1]; [9]", "value": "Increase"},
      {"measurement": "% Change calls", "setting": "[1]; [10]", "value": 75, "unit": "%"},
      {"measurement": "Direction of change", "setting": "[1]; [10]", "value": "Increase"},
      {"measurement": "% Change calls", "setting": "[1]; [11]", "value": 100, "unit": "%"},
      {"measurement": "Direction of change", "setting": "[1]; [11]", "value": "Increase"},
      {"measurement": "% Change calls", "setting": "[1]; [12]", "value": 75, "unit": "%"},
      {"measurement": "Direction of change", "setting": "[1]; [12]", "value": "Decrease"},
      {"measurement": "% Change calls", "setting": "[1]; [13]", "value": 100, "unit": "%"},
      {"measurement": "Direction of change", "setting": "[1]; [13]", "value": "Increase"},
      {"measurement": "% Change calls", "setting": "[1]; [14]", "value": 75, "unit": "%"},
      {"measurement": "Direction of change", "setting": "[1]; [14]", "value": "Increase"},
      {"measurement": "Array, NaBu Txd R6/2 vs R6/2", "setting": "[1]; MKP-1 mRNA, Cortex", "value": "I"},
      {"measurement": "Array, NaBu Txd R6/2 vs R6/2", "setting": "[1]; MKP-1 mRNA, Striatum", "value": "I"},
      {"measurement": "% Change calls", "setting": "[1]; [15]", "value": 75, "unit": "%"},
      {"measurement": "Direction of change", "setting": "[1]; [15]", "value": "Decrease"},
      {"measurement": "Array, NaBu Txd R6/2 vs R6/2", "setting": "[1]; [16]", "value": "NC"},
      {"measurement": "% Change calls", "setting": "[1]; [17]", "value": 75, "unit": "%"},
      {"measurement": "Direction of change", "setting": "[1]; [17]", "value": "Increase"},
      {"measurement": "% Change calls", "setting": "[1]; [18]", "value": 75, "unit": "%"},
      {"measurement": "Direction of change", "setting": "[1]; [18]", "value": "Decrease"},
      {"measurement": "% Change calls", "setting": "[1]; [19]", "value": 75, "unit": "%"},
      {"measurement": "Direction of change", "setting": "[1]; [19]", "value": "Decrease"},
      {"measurement": "% Change calls", "setting": "[1]; [20]", "value": 75, "unit": "%"},
      {"measurement": "Direction of change", "setting": "[1]; [20]", "value": "Decrease"},
      {"measurement": "% Change calls", "setting": "[1]; [21]", "value": 75, "unit": "%"},
      {"measurement": "Direction of change", "setting": "[1]; [21]", "value": "Decrease"},
      {"measurement": "% Change calls", "setting": "[1]; [22]", "value": 75, "unit": "%"},
      {"measurement": "Direction of change", "setting": "[1]; [22]", "value": "Decrease"},
      {"measurement": "% Change calls", "setting": "[1]; [23]", "value": 75, "unit": "%"},
      {"measurement": "Direction of change", "setting": "[1]; [23]", "value": "Decrease"},
      {"measurement": "% Change calls", "setting": "[1]; [24]", "value": 100, "unit": "%"},
      {"measurement": "Direction of change", "setting": "[1]; [24]", "value": "Increase"},
      {"measurement": "number of mRNA changes", "setting": "[1]; treated R6/2 vs untreated R6/2, striatum and cortex, 1.2 g/kg i.p. 2 weeks", "value": 20},
      {"measurement": "Array, NaBu Txd R6/2 vs R6/2", "setting": "[1]; α-globin mRNA, Cortex", "value": "I"},
      {"measurement": "Array, NaBu Txd R6/2 vs R6/2", "setting": "[1]; α-globin mRNA, Striatum", "value": "I"},
      {"measurement": "Array, NaBu Txd R6/2 vs R6/2", "setting": "[1]; β-globin mRNA, Cortex", "value": "I"},
      {"measurement": "Array, NaBu Txd R6/2 vs R6/2", "setting": "[1]; β-globin mRNA, Striatum", "value": "I"},
      {"measurement": "Northern, NaBu Txd R6/2 vs R6/2", "setting": "[2]; MKP-1 mRNA, Cortex, p<0.0001", "value": 204, "unit": "%^e"},
      {"measurement": "Northern, NaBu Txd R6/2 vs R6/2", "setting": "[2]; [16]", "value": 98, "unit": "%"},
      {"measurement": "Northern, NaBu Txd R6/2 vs R6/2", "setting": "[2]; α-globin mRNA, Cortex, p<0.01", "value": 159, "unit": "%^c"},
      {"measurement": "Northern, NaBu Txd R6/2 vs R6/2", "setting": "[2]; β-globin mRNA, Cortex, p<0.001", "value": 206, "unit": "%^d"},
      {"measurement": "extension of survival", "setting": "[3]; 1,200 mg/kg/d i.p. from day 21, vs PBS-treated R6/2 mice, p<0.001", "value": 20.8, "unit": "%"},
      {"measurement": "time at which mice became moribund and died", "setting": "[3]; 5 g/kg/d i.p., treatment initiated at 21 days", "value": "1 to 11", "unit": "days"},
      {"measurement": "morbidity and mortality at onset of treatment", "setting": "[3]; 5,000 and 10,000 mg/kg/d i.p.", "value": "marked rapidly-coursing morbidity and mortality"}
    ]}
  ]
}
